According to patent US6069145A, “Piperazinonephenyloxazolidinone derivatives and their use as antibacterial agents” (Zeneca Limited, priority 1996, dated 2000):
Converted amounts (≈) assume the structure as drawn.

What was measured:
Assay type in all cases: cell-based
[1] = tested on: Staphylococcus aureus Oxford; experiment: agar-dilution MIC, S. aureus Oxford; settings: 10^4 CFU/spot, 37° C., 24 hours
Procedure: (§1) The following results were obtained on a standard in vitro test system. The activity is described in terms of the minimum inhibitory concentration (MIC) determined by the agar-dilution technique with an inoculum size of 10^4 CFU/spot.
(§2) Staphylococci were tested on agar, using an inoculum of 10^4 CFU/spot and an incubation temperature of 37° C. for 24 hours--standard test conditions for the expression of methicillin resistance.

[2] = tested on: Staphylococcus aureus MRQS; experiment: agar-dilution MIC, S. aureus MRQS; settings: methicillin resistant quinolone sensitive, 10^4 CFU/spot, 37° C., 24 hours
Procedure: as §1, §2
MRQS = methicillin resistant quinolone sensitive

[3] = tested on: Staphylococcus aureus MRQR; experiment: agar-dilution MIC, S. aureus MRQR; settings: methicillin resistant quinolone resistant, 10^4 CFU/spot, 37° C., 24 hours
Procedure: as §1, §2
MRQR = methicillin resistant quinolone resistant

[4] = tested on: Coagulase Negative Staphylococci MS; experiment: agar-dilution MIC, coagulase negative staphylococci MS; settings: 10^4 CFU/spot, 37° C., 24 hours
Procedure: as §1, §2

[5] = tested on: Coagulase Negative Staphylococci MR; experiment: agar-dilution MIC, coagulase negative staphylococci MR; settings: methicillin resistant, 10^4 CFU/spot, 37° C., 24 hours
Procedure: as §1, §2
MR = methicillin resistant

[6] = tested on: Streptococcus pyogenes C203; experiment: agar-dilution MIC, S. pyogenes C203; settings: agar with 5% defibrinated horse blood, 10^4 CFU/spot, 37° C., 5% carbon dioxide, 48 hours
Procedure: as §1
(§3) Streptococci and enterococci were tested on agar supplemented with 5% defibrinated horse blood, an inoculum of 10^4 CFU/spot and an incubation temperature of 37° C. in an atmosphere of 5% carbon dioxide for 48 hours--blood is required for the growth of some of the test organisms.

Enterococcus faecalis = experiment: agar-dilution MIC, E. faecalis; settings: agar with 5% defibrinated horse blood, 10^4 CFU/spot, 37° C., 5% carbon dioxide, 48 hours
Procedure: as §1, §3

Bacillus subtilis = experiment: agar-dilution MIC, B. subtilis; settings: 10^4 CFU/spot
Excerpt: as §1

For `CC(=O)NC[C@H]1CN(c2ccc(N3CCN(C)C(=O)C3)c(F)c2)C(=O)O1` [Example 1, N-(5S)-[3-(3-fluoro-4-{4-methyl-3-oxopiperazin-1-yl}phenyl)-2-oxooxazolidin-5-ylmethyl]acetamide], the MIC [1] was 1 µg/mL (≈ 2.74 µM), the MIC [2] was 2 µg/mL (≈ 5.49 µM) and the MIC [3] was 4 µg/mL (≈ 11 µM). For the same molecule, the MIC [4] was 0.5 µg/mL (≈ 1.37 µM), the MIC [5] was 1 µg/mL (≈ 2.74 µM) and the MIC [6] was 1 µg/mL (≈ 2.74 µM). For the same molecule, the MIC (Enterococcus faecalis) was 2 µg/mL (≈ 5.49 µM) and the MIC (Bacillus subtilis) was 1 µg/mL (≈ 2.74 µM).
